Assay results taken from US6656932B2, “Benzo thiadiazine matrix metalloproteinase inhibitors” (Warner-Lambert Company, priority 2001, dated 2003).
pIC50: −log10 of the molar value. Structures can show the parent of a compound that is named as a salt. Where two headings read alike, the source gives them in different places.

Biological target: MMP-13CD (catalytic domain of collagenase 3) (Homo sapiens, UniProt P45452)
Test: Thiopeptolide hydrolysis assay, MMP-13CD
Format: biochemical
Conditions: thiopeptolide substrate, HEPES pH 7.0; for pIC50: Table 1, read-out: MMP13 (CD) IC50; for IC50: Table 2, read-out: IC50 (μM) Versus Certain MMPs: MMP13 (CD)
Description: The invention compounds of Formula I have been evaluated in standard assays for their ability to inhibit the catalytic activity of various MMP enzymes.
Thiopeptolide substrates show virtually no decomposition or hydrolysis at or below neutral pH in the absence of a matrix metalloproteinase enzyme.
Several representative compounds have been evaluated for their ability to inhibit various matrix metalloproteinase enzymes.

CN1C(=O)N(Cc2ccccc2)S(=O)(=O)c2cc(C(=O)NCc3ccccc3)ccc21 [Example 2, 2-Benzyl-4-methyl-1,1,3-trioxo-1,2,3,4-tetrahydro-1l^6-benzo[1,2,4]thiadiazine-7-carboxylic Acid Benzylamide]
pIC50: 6.06

CN1C(=O)N(Cc2ccccc2)S(=O)(=O)c2cc(C(=O)NCc3ccncc3)ccc21 [Example 3, 2-Benzyl-4-methyl-1,1,3-trioxo-1,2,3,4-tetrahydro-1l^6-benzo[1,2,4]thiadiazine-7-carboxylic acid (pyridin-4-ylmethyl)-amide]
pIC50: 6.29

CN1C(=O)N(Cc2ccccc2)S(=O)(=O)c2cc(C(=O)NCc3ccc4[nH]ccc4c3)ccc21 [Example 4, 2-Benzyl-4-methyl-1,1,3-trioxo-1,2,3,4-tetrahydro-1l^6-benzo[1,2,4]thiadiazine-7-carboxylic acid (1H-indol-5-ylmethyl)-amide]
IC50: > 30 µM

CN1C(=O)N(Cc2ccccc2)S(=O)(=O)c2cc(C(=O)NCc3ccc(CCS(=O)(=O)NC(C)(C)C)cc3)ccc21 [Example 6, 2-Benzyl-4-methyl-1,1,3-trioxo-1,2,3,4-tetrahydro-1l^6-benzo[1,2,4]thiadiazine-7-carboxylic acid 4-(2-tert-butylsulfamoyl-ethyl)-benzylamide]
IC50: > 30 µM

CN1C(=O)N(Cc2ccccc2)S(=O)(=O)c2cc(C(=O)NCc3cc4ccccc4[nH]3)ccc21 [Example 7, 2-Benzyl-4-methyl-1,1,3-trioxo-1,2,3,4-tetrahydro-1l^6-benzo[1,2,4]thiadiazine-7-carboxylic acid (1H-indol-2-ylmethyl)-amide]
IC50: > 30 µM

CN1C(=O)N(Cc2ccccc2)S(=O)(=O)c2cc(C(=O)NCc3ccc(CCS(N)(=O)=O)cc3)ccc21 [Example 8, 2-Benzyl-4-methyl-1,1,3-trioxo-1,2,3,4-tetrahydro-1l^6-benzo[1,2,4]thiadiazine-7-carboxylic acid 4-(2-sulfamoyl-ethyl)-benzylamide]
IC50: 63 µM

CN1C(=O)N(Cc2ccc(C(=O)OC(C)(C)C)cc2)S(=O)(=O)c2cc(C(=O)NCc3ccccc3)ccc21 [Example 10, 4-(7-Benzylcarbamoyl-4-methyl-1,1,3-trioxo-3,4-dihydro-1H-1l^6-benzo[1,2,4]thiadiazin-2-ylmethyl)-benzoic Acid Tert-Butyl Ester]
IC50: > 30 µM

COc1ccc(CNC(=O)c2ccc3c(c2)S(=O)(=O)N(Cc2ccc(C(=O)OC(C)(C)C)cc2)C(=O)N3C)cc1 [Example 12, 4-[7-(4-Methoxy-benzylcarbamoyl)-4-methyl-1,1,3-trioxo-3,4-dihydro-1H-1l^6-benzo[1,2,4]thiadiazin-2-ylmethyl]-Benzoic Acid Tert-Butyl Ester]
IC50: > 30 µM

COc1ccc(CNC(=O)c2ccc3c(c2)S(=O)(=O)N(Cc2ccc(S(C)(=O)=O)cc2)C(=O)N3C)cc1 [Example 15, 2-(4-Methanesulfonyl-benzyl)-4-methyl-1,1,3-trioxo-1,2,3,4-tetrahydro-1l^6-benzo[1,2,4]thiadiazine-7-carboxylic acid 4-methoxy-benzylamide]
IC50: 11 µM

COc1ccc(CNC(=O)c2ccc3c(c2)S(=O)(=O)N(Cc2ccc(-c4ccccc4)cc2)C(=O)N3C)cc1 [Example 23, 2-Biphenyl-4-ylmethyl-4-methyl-1,1,3-trioxo-1,2,3,4-tetrahydro-1l^6-benzo[1,2,4]thiadiazine-7-carboxylic acid 4-methoxy-benzylamide]
IC50: > 30 µM

COc1ccc(CNC(=O)c2ccc3c(c2)S(=O)(=O)N(Cc2ccc(C(=O)OCCN(C)C)cc2)C(=O)N3C)cc1 [Example 26, 4-[7-(4-Methoxy-benzylcarbamoyl)-4-methyl-1,1,3-trioxo-3,4-dihydro-1H-1l^6-benzo[1,2,4]thiadiazin-2-ylmethyl]-benzoic acid 2-dimethylamino-ethyl Ester Hydrochloride]
IC50: 2.2 µM
